Common to all, as to type: biochemical
For one assay, the target named is T1, recombinant human DPP7 (Homo sapiens, UniProt Q9UHL4).
T1 construct: purchased R&D Systems
Kind of assay: DPP7 inhibition, fluorogenic substrate Lys-Pro-AMC. An outline of the steps: (§1)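 Enzyme per reaction: 50 ng DPP9, 20 ng DPP8, 10 ng each DPP7 and PREP. Compounds were serially diluted (8 points, up to 0.5% DMSO) and incubated at 25 °C.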

The target in a further assay is DPP4 (Homo sapiens, UniProt P27487). Kind of assay: DPP4 inhibition, fluorogenic substrate H-Gly-Pro-AMC. Also noted: purchased R&D Systems.
DPP4, sequence (P27487 whole entry): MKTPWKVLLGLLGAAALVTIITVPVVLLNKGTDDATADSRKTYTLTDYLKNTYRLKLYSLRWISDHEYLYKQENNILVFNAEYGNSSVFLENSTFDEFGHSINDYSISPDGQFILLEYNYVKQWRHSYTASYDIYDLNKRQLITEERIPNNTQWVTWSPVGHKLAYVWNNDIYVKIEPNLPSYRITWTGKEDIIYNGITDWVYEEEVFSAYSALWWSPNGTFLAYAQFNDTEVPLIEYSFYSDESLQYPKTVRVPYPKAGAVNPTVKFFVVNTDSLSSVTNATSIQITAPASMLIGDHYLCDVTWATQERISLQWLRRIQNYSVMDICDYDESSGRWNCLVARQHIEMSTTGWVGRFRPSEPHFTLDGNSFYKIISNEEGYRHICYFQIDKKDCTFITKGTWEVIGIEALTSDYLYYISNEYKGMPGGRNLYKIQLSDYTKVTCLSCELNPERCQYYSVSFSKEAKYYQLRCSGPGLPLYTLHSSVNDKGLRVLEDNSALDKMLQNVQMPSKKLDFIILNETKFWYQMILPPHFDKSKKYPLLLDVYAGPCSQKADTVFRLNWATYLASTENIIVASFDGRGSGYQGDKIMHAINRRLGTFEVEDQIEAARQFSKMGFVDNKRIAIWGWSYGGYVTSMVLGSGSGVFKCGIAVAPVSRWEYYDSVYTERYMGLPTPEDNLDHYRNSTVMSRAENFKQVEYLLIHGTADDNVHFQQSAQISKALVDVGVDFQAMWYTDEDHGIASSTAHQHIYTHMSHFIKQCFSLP
A further assay addresses T2, recombinant human DPP9 (Homo sapiens, UniProt Q86TI2).
T2 construct: purchased R&D Systems
As to the kind of experiment: DPP9 inhibition, fluorogenic substrate H-Gly-Pro-AMC. Put shortly:
as §1

For the next assay, the target named is T3, Recombinant human FAP (Homo sapiens, UniProt Q12884).
T3 construct: purchased R&D systems
T3 sequence (Q12884 1-760): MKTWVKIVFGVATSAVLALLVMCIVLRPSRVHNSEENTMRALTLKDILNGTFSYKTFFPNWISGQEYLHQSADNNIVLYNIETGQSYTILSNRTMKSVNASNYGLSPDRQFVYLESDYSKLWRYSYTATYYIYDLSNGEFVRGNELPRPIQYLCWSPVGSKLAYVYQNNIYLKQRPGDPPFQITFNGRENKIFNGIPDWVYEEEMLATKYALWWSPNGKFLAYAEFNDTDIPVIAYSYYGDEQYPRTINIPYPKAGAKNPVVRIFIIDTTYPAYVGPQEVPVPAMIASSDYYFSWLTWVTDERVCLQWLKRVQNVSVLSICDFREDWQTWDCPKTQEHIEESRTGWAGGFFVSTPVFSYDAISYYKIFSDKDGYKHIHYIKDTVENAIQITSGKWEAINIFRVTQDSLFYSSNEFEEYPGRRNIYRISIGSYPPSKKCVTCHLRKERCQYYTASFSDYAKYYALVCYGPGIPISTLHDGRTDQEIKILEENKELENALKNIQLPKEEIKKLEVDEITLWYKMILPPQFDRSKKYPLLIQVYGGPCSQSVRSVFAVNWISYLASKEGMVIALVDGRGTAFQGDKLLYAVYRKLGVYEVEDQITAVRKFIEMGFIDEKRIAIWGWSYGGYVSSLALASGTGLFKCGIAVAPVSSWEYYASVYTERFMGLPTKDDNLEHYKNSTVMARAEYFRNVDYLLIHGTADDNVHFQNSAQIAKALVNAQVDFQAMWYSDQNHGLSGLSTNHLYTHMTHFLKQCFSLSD
Kind of assay: FAP inhibition, fluorogenic substrate Z-Gly-Pro-AMC. Put shortly:
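Recombinant human FAP, 10 ng per reaction, in 50 mM Tris pH 7.5 with 1 M NaCl and 1 mg/ml BSA at 25° C; substrate Z-Gly-Pro-AMC, ≤0.1% DMSO. AMC fluorescence read at ex 380/em 460 nm; % signal-rate decrease vs no-inhibitor control, 8-point curves fitted to a four-parameter logistic for IC50.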

For the next assay, the target named is T4, recombinant human DPP8 (Homo sapiens, UniProt Q6V1X1).
T4 construct: purchased PBS Bioscience
T4 sequence (Q6V1X1 whole entry): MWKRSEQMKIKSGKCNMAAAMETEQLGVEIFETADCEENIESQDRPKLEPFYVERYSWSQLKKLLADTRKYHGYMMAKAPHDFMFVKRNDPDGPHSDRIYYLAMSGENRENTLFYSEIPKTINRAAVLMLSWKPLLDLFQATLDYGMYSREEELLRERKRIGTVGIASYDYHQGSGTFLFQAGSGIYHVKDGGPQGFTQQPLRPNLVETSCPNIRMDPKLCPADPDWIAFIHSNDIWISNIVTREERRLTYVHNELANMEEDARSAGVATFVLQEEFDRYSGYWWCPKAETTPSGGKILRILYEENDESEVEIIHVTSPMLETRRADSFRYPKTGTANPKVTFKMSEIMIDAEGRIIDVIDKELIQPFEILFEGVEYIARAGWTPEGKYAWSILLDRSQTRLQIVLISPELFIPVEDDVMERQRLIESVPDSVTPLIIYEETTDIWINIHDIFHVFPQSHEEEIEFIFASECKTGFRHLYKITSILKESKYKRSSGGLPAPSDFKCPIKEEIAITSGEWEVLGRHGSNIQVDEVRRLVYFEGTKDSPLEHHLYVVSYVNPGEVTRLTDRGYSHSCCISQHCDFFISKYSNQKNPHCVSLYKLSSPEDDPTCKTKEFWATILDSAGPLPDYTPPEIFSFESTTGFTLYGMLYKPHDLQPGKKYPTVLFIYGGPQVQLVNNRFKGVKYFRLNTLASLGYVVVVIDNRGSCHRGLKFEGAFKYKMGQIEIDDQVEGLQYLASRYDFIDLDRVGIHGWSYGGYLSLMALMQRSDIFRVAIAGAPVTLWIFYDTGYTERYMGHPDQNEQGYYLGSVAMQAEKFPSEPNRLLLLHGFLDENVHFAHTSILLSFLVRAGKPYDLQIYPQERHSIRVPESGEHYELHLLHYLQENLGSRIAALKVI
As to the kind of experiment: DPP8 inhibition, fluorogenic substrate Z-Ala-Pro-AMC. The method, then:
The compounds according to the present technology were evaluated in terms of the inhibitory effect on the activity of dipeptidyl peptidases including FAP by using a substrate producing fluorescent substances upon enzymatic decomposition. The test was conducted at 25° C. to get a final reaction volume of 100 μL in a 96 black well plate. […] Briefly, the test compounds were dissolved in dimethyl sulfoxide (DMSO) at a concentration of 20 mM and then subjected to serial dilution, thereby creating an 8 point curve. As for the control group, a 6 point curve created by serial dilution of Talabostat in the same buffer solution was used. Fluorescence intensity was measured using a microplate reader (Flexstation3, Molecular Devices) under the wavelength condition exciting at 380 nm and reading the emission at 460 nm. The inhibitory effect of the test compounds was measured as a decrease (%) in the signal rate as compared to the control group without any inhibitor. Data was fixed to a logistic model with four variables and IC50 value was calculated using GraphPad Prism program. As for recombinant human DPP4 (R&D Systems), 25 mM tris (pH 8.0) buffer as a buffer solution and H-Gly-Pro-AMC (Bachem) as a substrate were used. As for recombinant human DPP7 (R&D Systems), 25 mM MES (pH 6.0) buffer as a buffer solution and Lys-Pro-AMC (Bachem) as a substrate were used. As for recombinant human DPP8 (PBS Bioscience), as a buffer solution, a 10 mM tris (pH 7.4) buffer comprising 10 mM of magnesium chloride and 0.05% of Tween 20, and Z-Ala-Pro-AMC (BPS Bioscience) as a substrate were used. As for recombinant human DPP9 (R&D Systems), a 25 mM tris (pH 8.0) buffer as a buffer solution and H-Gly-Pro-AMC (Bachem) as a substrate were used. As for recombinant human PREP (R&D System), as a buffer solution, a 25 mM tris (pH 7.5) buffer comprising 250 mM sodium chloride and 2.5 mM DTT (Dithiolthreitol), and Z-Gly-Pro-AMC (Bachem) as a substrate were used. The evaluation was made by using 10 ng of DPP4, PDD7, and PREP, 20 ng of DPP8, and 50 ng of DPP9 based on the final reaction. In the evaluation of DPP4, the test compounds were subjected to serial dilution in a buffer under the condition containing up to 0.1% of DMSO. In the evaluation of DPP7, DPP8, DPP9, and PREP, the test compounds were subjected to serial dilution in each buffer under the condition containing up to 0.5% of DMSO.

The target of the next assay is T5, recombinant human PREP (Homo sapiens, UniProt P48147).
T5 construct: purchased R&D System
T5 sequence (P48147 1-710): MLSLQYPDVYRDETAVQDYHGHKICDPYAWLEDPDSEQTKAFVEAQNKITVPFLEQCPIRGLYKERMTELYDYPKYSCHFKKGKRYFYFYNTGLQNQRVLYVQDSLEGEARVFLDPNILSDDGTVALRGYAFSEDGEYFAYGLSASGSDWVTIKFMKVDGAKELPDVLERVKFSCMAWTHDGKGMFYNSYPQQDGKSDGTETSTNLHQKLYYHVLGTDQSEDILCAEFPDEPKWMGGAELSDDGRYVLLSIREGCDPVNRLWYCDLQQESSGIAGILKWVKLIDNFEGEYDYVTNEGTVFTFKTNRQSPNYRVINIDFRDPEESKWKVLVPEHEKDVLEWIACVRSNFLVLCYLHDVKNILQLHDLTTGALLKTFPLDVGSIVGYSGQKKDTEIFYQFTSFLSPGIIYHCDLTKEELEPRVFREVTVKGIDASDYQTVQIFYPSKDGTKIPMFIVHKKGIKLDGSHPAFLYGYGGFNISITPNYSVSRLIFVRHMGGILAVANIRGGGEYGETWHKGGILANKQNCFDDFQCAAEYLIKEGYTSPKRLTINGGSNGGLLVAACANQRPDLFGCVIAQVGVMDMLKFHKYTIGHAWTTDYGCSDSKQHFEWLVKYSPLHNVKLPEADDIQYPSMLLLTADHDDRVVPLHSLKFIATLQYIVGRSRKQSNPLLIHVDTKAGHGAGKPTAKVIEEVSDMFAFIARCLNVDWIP
As to the kind of experiment: PREP inhibition, fluorogenic substrate Z-Gly-Pro-AMC. Particulars: Inhibitory Activity (IC50, nM) PREP. Put shortly: as §1

Where [1] appears, read: 25° C., H-Gly-Pro-AMC substrate.
[2] abbreviates: 25° C., Z-Gly-Pro-AMC substrate.
The mark [3] stands for this setting: 25° C., Z-Ala-Pro-AMC substrate.
The mark [4] stands for this setting: recombinant human FAP, substrate Z-Gly-Pro-AMC.

Where two headings read alike, the source gives them in different places.

T2 sequence (Q86TI2 whole entry): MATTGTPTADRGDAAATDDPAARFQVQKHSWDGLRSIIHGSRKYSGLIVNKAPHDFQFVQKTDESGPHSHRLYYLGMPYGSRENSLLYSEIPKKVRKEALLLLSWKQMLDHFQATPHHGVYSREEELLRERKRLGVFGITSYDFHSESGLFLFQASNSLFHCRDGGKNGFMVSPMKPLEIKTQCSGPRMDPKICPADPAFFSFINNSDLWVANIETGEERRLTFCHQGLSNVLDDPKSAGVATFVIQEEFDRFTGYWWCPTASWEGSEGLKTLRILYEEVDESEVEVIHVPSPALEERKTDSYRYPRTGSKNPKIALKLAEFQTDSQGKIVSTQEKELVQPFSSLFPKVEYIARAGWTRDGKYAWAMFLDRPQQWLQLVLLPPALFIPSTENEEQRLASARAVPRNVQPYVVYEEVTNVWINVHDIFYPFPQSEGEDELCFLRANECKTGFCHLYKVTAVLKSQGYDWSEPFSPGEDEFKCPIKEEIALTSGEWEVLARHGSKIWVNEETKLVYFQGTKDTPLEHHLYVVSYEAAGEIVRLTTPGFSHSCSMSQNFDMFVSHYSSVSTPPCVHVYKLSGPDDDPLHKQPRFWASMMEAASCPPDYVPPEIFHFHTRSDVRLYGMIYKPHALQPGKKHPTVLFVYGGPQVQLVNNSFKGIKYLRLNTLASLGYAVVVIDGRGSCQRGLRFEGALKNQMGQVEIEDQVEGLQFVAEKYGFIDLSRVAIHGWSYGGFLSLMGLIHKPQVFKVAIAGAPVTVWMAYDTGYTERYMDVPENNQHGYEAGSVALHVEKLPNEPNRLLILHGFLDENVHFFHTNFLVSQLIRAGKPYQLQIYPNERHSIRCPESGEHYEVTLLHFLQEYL

For the compound `N#C[C@@H]1C[C@H](F)CN1C(=O)CN1CCC(Nc2cccc3ncccc23)CC1` [Example 113, (2S,4S)-4-fluoro-1-(2-(4-(quinolin-5-ylamino)piperidin-1-yl)acetyl)pyrrolidine-2-carbonitrile], the 50% inhibitory concentration (IC50) (in general, the concentration needed to halve the response being measured) on recombinant human DPP7 was 342 nM; at recombinant human DPP9 (setting [1]), 3.97 µM; at Recombinant human FAP (setting [2]) it was 1.65 nM; at recombinant human DPP8 (setting [3]) it was 2.41 µM; on recombinant human PREP (setting [2]) it was 2930 nM. Moreover, on DPP4 (read-out: hDPP4 inhibition % at 1 μM), the inhibition (as a rule, how much of the control response was suppressed) at 1 µM turned out to be 20%.

`N#C[C@@H]1CCCN1C(=O)CN1CCC(Oc2cccc3ncccc23)CC1` [Example 119, (S)-1-(2-(4-(quinolin-5-yloxy)piperidin-1-yl)acetyl)pyrrolidine-2-carbonitrile]: the half-maximal inhibitory concentration (IC50) at recombinant human DPP7 was 2350 nM; on recombinant human DPP9 (setting [1]) it was > 100 µM; at Recombinant human FAP (setting [2]), 1.45 nM; at recombinant human DPP8 (setting [3]) it was 60.4 µM; at recombinant human PREP (setting [2]) it was 3760 nM. Also, the “hDPP4 inhibition % at 1 μM” value on DPP4 (at 1 μM) was “No inhibition**”.

`N#C[C@@H]1CCCN1C(=O)CN1CC[C@H](NC(=O)c2cc3ccccc3s2)C1` [Example 36, N—((S)-1-(2-((S)-2-cyanopyrrolidin-1-yl)-2-oxoethyl)pyrrolidin-3-yl)benzo[b]thiophene-2-carboxamide]: the IC50 was 3550 nM on recombinant human DPP7; > 1 µM against DPP4 (setting [1]); > 100 µM on recombinant human DPP9 (setting [1]); 32.7 nM at Recombinant human FAP (setting [2]); 21.8 µM at recombinant human DPP8 (setting [3]); 6450 nM at recombinant human PREP (setting [2]).

For `Cc1ccc(N[C@H]2CCN(CC(=O)N3CCC[C@H]3C#N)C2)c2cccnc12` [Example 242, (2S)-1-[2-[(3S)-3-[(8-methyl-5-quinolyl)amino]pyrrolidin-1-yl]acetyl]pyrrolidine-2-carbonitrile], the IC50 on recombinant human DPP7 (recombinant human DPP7) is 1700 nM; on DPP4 (recombinant human DPP4), > 10 µM; on recombinant human DPP9 (recombinant human DPP9) it was 19.3 µM; on Recombinant human FAP (setting [4]) it was 1.7 nM; on recombinant human DPP8 (recombinant human DPP8), 11 µM; at recombinant human PREP (recombinant human PREP) it was 8440 nM.

Turning to `N#C[C@@H]1C[C@H](F)CN1C(=O)CN1CCC(Nc2cccc3c(Cl)nccc23)CC1` [Example 351, (2S,4S)-1-[2-[4-[(1-chloro-5-isoquinolyl)amino]-1-piperidyl]acetyl]-4-fluoro-pyrrolidine-2-carbonitrile], the IC50 at recombinant human DPP7 (recombinant human DPP7) was found to be 842 nM; on DPP4 (recombinant human DPP4), 6.73 µM; at recombinant human DPP9 (recombinant human DPP9), 4.53 µM; on Recombinant human FAP (setting [4]), 3.4 nM; on recombinant human DPP8 (recombinant human DPP8), 2.81 µM; at recombinant human PREP (recombinant human PREP) it was 3280 nM.

With `CN(c1cccc2cnccc12)[C@H]1CCN(CC(=O)N2CCC[C@H]2C#N)C1` [Example 148, (2S)-1-[2-[(3S)-3-[5-isoquinolyl(methyl)amino]pyrrolidin-1-yl]acetyl]pyrrolidine-2-carbonitrile], the IC50 came to 10800 nM on recombinant human DPP7; 29.3 µM at recombinant human DPP9 (setting [1]); 7.3 nM at Recombinant human FAP (setting [2]); 86.6 µM on recombinant human DPP8 (setting [3]); 3810 nM at recombinant human PREP (setting [2]).

Regarding `CN(c1ccc2ncccc2c1)[C@@H]1CCN(CC(=O)N2CCC[C@H]2C#N)C1` [Example 140, (2S)-1-[2-[(3R)-3-[methyl(6-quinolyl)amino]pyrrolidin-1-yl]acetyl]pyrrolidine-2-carbonitrile], the IC50 on recombinant human DPP7 is 1400 nM; on recombinant human DPP9 (setting [1]), 32.6 µM; on Recombinant human FAP (setting [2]), 15.7 nM; at recombinant human DPP8 (setting [3]), ≥ 100 µM; on recombinant human PREP (setting [2]), 4260 nM.

`COc1cccc2cc(N(C)[C@H]3CCN(CC(=O)N4CCC[C@H]4C#N)C3)cnc12` [Example 154, (S)-1-(2-((S)-3-((8-methoxyquinolin-3-yl)(methyl)amino)pyrrolidin-1-yl)acetyl)pyrrolidine-2-carbonitrile]: the IC50 is 3310 nM at recombinant human DPP7; 41.7 µM at recombinant human DPP9 (setting [1]); 5.2 nM on Recombinant human FAP (setting [2]); 22 µM on recombinant human DPP8 (setting [3]); 970 nM at recombinant human PREP (setting [2]).

In the case of `CN(c1cccc2ncccc12)[C@H]1CCN(CC(=O)N2CCC[C@H]2C#N)C1` [Example 144, (2S)-1-[2-[(3S)-3-[methyl(5-quinolyl)amino]pyrrolidin-1-yl]acetyl]pyrrolidine-2-carbonitrile], the IC50 on recombinant human DPP7 was determined as 19300 nM; on recombinant human DPP9 (setting [1]), 23.8 µM; on Recombinant human FAP (setting [2]), 6 nM; on recombinant human DPP8 (setting [3]), 85 µM; on recombinant human PREP (setting [2]) it was 3360 nM.

As for `CN(c1ccc2cccnc2c1)[C@H]1CCN(CC(=O)N2CCC[C@H]2C#N)C1` [Example 146, (2S)-1-[2-[(3S)-3-[methyl(7-quinolyl)amino]pyrrolidin-1-yl]acetyl]pyrrolidine-2-carbonitrile], the IC50 on recombinant human DPP7 is 916 nM; on recombinant human DPP9 (setting [1]), ≥ 100 µM; on Recombinant human FAP (setting [2]) it was 6.6 nM; at recombinant human DPP8 (setting [3]) it was ≥ 100 µM; on recombinant human PREP (setting [2]), 4590 nM.

`N#C[C@@H]1C[C@H](F)CN1C(=O)CN1CC[C@@H](Nc2ccnc3ccccc23)C1` [Example 170, (2S,4S)-4-fluoro-1-[2-[(3R)-3-(4-quinolylamino)pyrrolidin-1-yl]acetyl]pyrrolidine-2-carbonitrile]: the IC50 at recombinant human DPP7 (recombinant human DPP7) was 302 nM; on recombinant human DPP9 (recombinant human DPP9) it was 2.7 µM; on Recombinant human FAP (setting [4]), 3.5 nM; on recombinant human DPP8 (recombinant human DPP8), 14 µM; on recombinant human PREP (recombinant human PREP), 7980 nM.

The values above are taken from patent US11655235B2, “Pyrrolidine and piperidine compounds” (YUHAN CORPORATION, priority 2019, dated 2023).
